One experiment deals with gastric secretion. Kind of experiment: TEST II: inhibition of pentagastrin-stimulated gastric secretion in pylorus-ligated rats. It is filed as in vivo, rat. The conditions noted are these: i.m., 100 μg/kg pentagastrin s.c., 30 mins. How it is done: Male rats (220-280 g) are kept in the laboratory in individual cages for several days (14 hours light/day) with 48 hours fasting (but free access to water) immediately prior to the experiment. At start of the experiment the pylorus is ligated under ether anaesthesia and 100 μg/kg pentagastrin are injected s.c. to stimulate gastric secretion. The test compounds are injected simultaneously i.m. 30 mins. later the animals are sacrificed, the volume of gastric juice measured and the acid concentration estimated (titration with thymol blue). The acid output is calculated and the percent inhibition estimated in relation to untreated controls.
Polypeptides in accordance with the invention are active in this test when administered at a dosage in the range of from 0.01 to 100 μg/kg i.m.

For experiment [1], the system named is GH-secretion (serum GH-level). Kind of experiment: TEST I: depression of serum GH-levels in the rat (GH-secretion inhibition). Type of experiment: in vivo. The conditions noted are these: male rats under Nembutal narcosis, 15 minutes after administration. How it is done: This test (TEST I) is carried out employing male rats under Nembutal narcosis. The test-substance is administered at varying, logarithmically staggered doses employing at least 4 rats per dose. The rats are decapitated 15 minutes after administration, the blood is collected and the serum GH-level determined by radio-immuno-assay.
Polypeptides in accordance with the invention are active in this test when administered at a dosage in the range of from 0.01 to 100 μg/kg i.v. or i.m.

Each structure is given as a SMILES string.

Regarding `C[C@@H](O)[C@@H]1NC(=O)[C@H](CCCCN)NC(=O)[C@@H](Cc2c[nH]c3ccccc23)NC(=O)[C@H](Cc2ccccc2)NC(=O)[C@@H](NC(=O)[C@H](N)Cc2ccccc2)CSSC[C@@H](C(=O)N[C@H](CO)[C@@H](C)O)NC1=O` [Example 1], in the experiment with gastric secretion, the “ID50 in TEST II for acid concentration” value stood at 0.0004 mg/kg and the “ID50 in TEST II for gastric juice content” value turned out to be 0.0007 mg/kg.

Regarding `C[C@H](N)C(=O)NCC(=O)N[C@H]1CSSC[C@@H](C(=O)O)NC(=O)[C@H](CO)NC(=O)[C@H]([C@@H](C)O)NC(=O)[C@H](Cc2ccccc2)NC(=O)[C@H]([C@@H](C)O)NC(=O)[C@H](CCCCN)NC(=O)[C@H](Cc2c[nH]c3ccccc23)NC(=O)[C@H](Cc2ccccc2)NC(=O)[C@H](Cc2ccccc2)NC(=O)[C@H](CC(N)=O)NC(=O)[C@H](CCCCN)NC1=O` [somatostatin], the “ID50 in TEST I (amount required to effect 50% inhibition of serum GH-level compared with untreated controls)” value in experiment [1] (i.m.) turned out to be 0.0056 mg/kg. Moreover, the “ID50 in TEST I (amount required to effect 50% inhibition of serum GH-level compared with untreated controls)” value in experiment [1] (i.v.) was 0.062 mg/kg. For the same molecule, in the experiment on gastric secretion, the “ID50 in TEST II for acid concentration” value stood at 0.035 mg/kg and the “ID50 in TEST II for gastric juice content” value stood at 0.055 mg/kg.

The values above are taken from US4395403A, “Polypeptides, processes for their production, pharmaceutical compositions comprising said polypeptides and their use” (Sandoz Ltd., priority 1979, dated 1983).
